Experimental data from paper PMC11320734 (ACS Pharmacology & Translational Science, 2024).
Values after ≈ are worked out from the molar mass of the structure shown. Where two headings read alike, the source gives them in different places.

Legend:
[1] = test system: UUO-induced kidney fibrosis; experiment: Unilateral ureteral obstruction (UUO) model of kidney fibrosis; type: in vivo, Sprague–Dawley rats; details: 32 mg kg^–1, day 5, time-course experiment
Procedure: (§1) In the ischemia/reperfusion (I/R) model of acute kidney injury (AKI),[47],[48] the compounds were administered orally by gavage to C57BL/6 mice 30 min before ischemia obtained by clamping both renal arteries and veins for 25 min, followed by 24 h of reperfusion. Mice were anesthetized using xylazine (10 mg kg^–1)/ketamine (100 mg kg^–1) injected intraperitoneally. Sham treated mice were treated identically except for the temporary closure of the renal vessels. After 24 h, under reanesthesia, plasma was taken for biomarker analysis. Thereafter, mice still in deep anesthesia were sacrificed by cervical dislocation. Creatinine, BUN (blood urea nitrogen), NGAL (neutrophil gelatinase-associated lipocalin), osteopontin, and KIM1 (kidney injury molecule-1) levels were determined using the following commercially available standard assays: creatinine: Roche Diagnostics 03263991, BUN: Roche Diagnostics 04460715, NGAL: BioPorto, Kit046 + Kit042, osteopontin: R&D Systems, MOST00, KIM-1: Abnova, KA1064. To assess fibrotic effects, we used the unilateral ureteral obstruction (UOO) model in Sprague–Dawley rats.[49] For the UOO model, rats were sacrificed after 5, 8, and 11 days and the percentage of PicroSirius Red positive areas (indicator of collagen III–I deposition) were measured in 4 μm histological cross sections of the kidney after 2% paraformaldehyde perfusion fixation and paraffin embedding. The extend of kidney fibrosis was quantified based on PicroSirius Red staining of 10 renal sections about 1 mm apart from each kidney. The collagen–III-I-positive pixel counts were determined in the cortical aspect of each kidney section from 10 optical fields using a 40× objective. As the total area analyzed was identical for all kidneys under investigation, the absolute number of pixels was used as the relevant readout. Vehicle treated animals received saline gavage only. The details of PicroSirius Red staining were previously described.[22]

[2] = target: T1, CB2R in wild-type rat spleen membranes (Rattus norvegicus, UniProt Q9QZN9); type: binding; details: WT rat spleen membranes
T1 construct: from tissue; host or cells: rat spleen membranes

[3] = Solubility (Table 1); type: physicochemical; details: thermodynamic from solid
Procedure: (§2) For the determination of the octanol/water distribution coefficient (logD), the carrier-mediated distribution system (CAMDIS)-assay was used as described elsewhere.[38] Kinetic and thermodynamic solubilities were assessed using the lyophilization solubility assay (LYSA) and thermodynamic solubility assay (THESA), respectively. For the LYSA, the solubility of RNB- 61 in phosphate buffer at pH 6.5 from an evaporated 10 mM DMSO compound stock solution was measured. Two aliquots of the test compounds were dried and dissolved in phosphate buffer at pH 6.5. The solutions were then filtered and diluted (3 different dilution levels for each compound) before high throughput mass spectrometry (MS) analysis was performed in an Agilent RapidFire system. Each test compound was quantified using a 6-point calibration curve prepared with the same DMSO starting solution. For THESA, RNB-61 (8.6 mg per mL solvent/vehicle) was stirred in HPLC vials (9 × 12 × 32 mm, Waters) at 350 rpm for 15 h. The presence of solid particles was determined by microscopic analysis of 10 μL samples. If the active pharmacological ingredient (API) was completely dissolved, more solid API was added before stirring for another 15 h. This step was repeated for up to 96 h or until residual solid particles could be detected. Samples (0.5 mL) were transferred to Eppendorf Ultrafree filter tubes (Filter: PVDF 0.22 μm) and centrifuged at 14,500 rpm for 10 min. The filtrates were diluted in ethanol and analyzed by ultra-performance liquid chromatography (UPLC). Measurements were repeated in 0.05 M aqueous phosphate buffer and in fasted (FaSSIF) and fed (FeSSIF) simulated gastrointestinal fluids.

[4] = Octanol/water distribution coefficient (logD), CAMDIS assay; type: physicochemical; details: octanol/water; read-out: logD
Procedure: as §2

[5] = Microsomal clearance; type: in vitro ADME; details: human, human microsomes; Table 1
[6] = Microsomal clearance; type: in vitro ADME; details: rat, rat microsomes, Table 1
[7] = target: human wild type CB2R (Homo sapiens, UniProt P34972); experiment: cAMP assay in CHO cells; type: cell-based; design: expressed in transfected cells; host or cells: CHO cells
[8] = test system: renal I/R-induced acute kidney injury; experiment: Ischemia/reperfusion (I/R) model of acute kidney injury; type: in vivo, C57BL/6 mice
Procedure: as §1

[9] = target: T2, hCB1R (Homo sapiens, UniProt P21554); experiment: cell-based; details: Table 1; mean ± SD; read-out: EC50 hCB1R (cAMP assay)
[10] = Parallel artificial membrane permeability (PAMPA) assay; type: in vitro ADME; details: PAMPA, Table 1; read-out: PAMPA Peff
Procedure: The general permeability of the compound was assessed using the parallel artificial membrane permeability (PAMPA) assay and the permeability-glycoprotein (P-gp) assay was used to specifically test for brain penetration. PAMPA data were generated as previously reported by our group.[44] The P-gp assay, which evaluates the brain penetration of test compounds, was performed as described elsewhere.[45] Briefly, transfected porcine kidney epithelial (LLC-PK1) cells expressing human or mouse P-gp were cultured on 96-well semipermeable filter membrane plates (Millipore, Darmstadt, Germany). Cells formed a polarized monolayer with tight junctions that acted as a barrier between apical and basolateral compartments. P-gp was expressed in the apical-facing membrane of the monolayer (tightness confirmed using Lucifer yellow). To determine the unidirectional permeability (Papp) of RNB-61, samples were added separately to the apical (for A > B Papp) and basolateral (for B > A Papp) sides of the cell monolayer (i.e., donor compartments), and RNB-61 movement into the respective receiver compartments was measured by LC-MS/MS over a 3 h incubation at 37 °C. The effect of P-gp was measured by expressing the efflux ratio of the unidirectional A > B and B > A Papp values. The mean permeability (A > B and B > A Papp) was determined in the absence of P-gp via the addition of the selective P-gp inhibitor, tariquidar.

[11] = target: human CB2R (Homo sapiens, UniProt P34972); experiment: Competition binding assay with [3H]-CP55940, HEK cell membranes; details: for hCB2R selectivity: Ki hCB1R over Ki hCB2R
Procedure: (§3) Competition and saturation binding assays were performed using the radiolabeled CB1R/CB2R agonist [^3H]-CP55940 (PerkinElmer).
(§4) Binding reactions were terminated by vacuum filtration onto 0.5% polyethylenimine presoaked GF/B filter plates (Packard) using a Filtermate cell harvester followed by 6 brief washes with 0.3 mL/well of ice-cold wash buffer. Wash buffer comprising 50 mmol L^–1 Tris- HCl, 5 mmol L^–1 MgCl2, 2.5 mmol L^–1 EDTA, and 0.5% fatty acid-free BSA, pH 7.4. Plates were dried at 50 °C for 1 h and liquid scintillation counting was used to determine levels of bound radiolabel. IC50 values and Hill slopes were determined with a 4-parameter logistic model using ActivityBase (ID Business Solution, Guilford, UK) and pKi values were determined using the Cheng–Prusoff equation as shown below: [drawing 1] where S indicates the concentration of the substrate and Km depicts the affinity constant of the substrate.

[12] = target: T2, hCB1R; experiment: as above
Procedure: as §3, §4

[13] = Table 1, mean ± SD, read-out: EC50 hCB2R (cAMP assay)

T2 sequence (P21554 whole entry): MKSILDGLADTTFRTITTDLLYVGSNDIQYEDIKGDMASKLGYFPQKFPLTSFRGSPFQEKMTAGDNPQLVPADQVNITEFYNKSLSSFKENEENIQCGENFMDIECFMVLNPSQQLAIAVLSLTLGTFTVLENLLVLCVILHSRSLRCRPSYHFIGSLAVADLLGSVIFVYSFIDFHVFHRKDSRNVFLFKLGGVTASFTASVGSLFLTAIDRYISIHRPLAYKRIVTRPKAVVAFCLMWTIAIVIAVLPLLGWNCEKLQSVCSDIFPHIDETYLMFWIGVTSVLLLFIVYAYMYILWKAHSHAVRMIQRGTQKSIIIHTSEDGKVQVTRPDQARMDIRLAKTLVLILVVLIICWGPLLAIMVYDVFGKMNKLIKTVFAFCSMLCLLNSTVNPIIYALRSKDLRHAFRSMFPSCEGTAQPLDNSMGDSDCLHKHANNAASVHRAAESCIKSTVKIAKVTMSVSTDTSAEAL
Chain of human wild type CB2R (P34972 whole entry, the tested form may be a part): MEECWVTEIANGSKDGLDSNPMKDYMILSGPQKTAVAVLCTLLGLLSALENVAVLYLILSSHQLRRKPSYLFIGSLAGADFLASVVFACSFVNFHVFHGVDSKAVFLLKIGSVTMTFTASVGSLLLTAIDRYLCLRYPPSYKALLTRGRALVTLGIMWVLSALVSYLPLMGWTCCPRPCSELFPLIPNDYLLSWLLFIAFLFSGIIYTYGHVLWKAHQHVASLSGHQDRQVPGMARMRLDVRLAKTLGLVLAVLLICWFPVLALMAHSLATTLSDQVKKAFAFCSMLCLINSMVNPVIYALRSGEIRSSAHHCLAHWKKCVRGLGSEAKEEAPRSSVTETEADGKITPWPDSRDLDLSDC
Chain of human CB2R (P34972 whole entry): as the sequence (P34972 whole entry, the tested form may be a part) above
T1 sequence (Q9QZN9 whole entry): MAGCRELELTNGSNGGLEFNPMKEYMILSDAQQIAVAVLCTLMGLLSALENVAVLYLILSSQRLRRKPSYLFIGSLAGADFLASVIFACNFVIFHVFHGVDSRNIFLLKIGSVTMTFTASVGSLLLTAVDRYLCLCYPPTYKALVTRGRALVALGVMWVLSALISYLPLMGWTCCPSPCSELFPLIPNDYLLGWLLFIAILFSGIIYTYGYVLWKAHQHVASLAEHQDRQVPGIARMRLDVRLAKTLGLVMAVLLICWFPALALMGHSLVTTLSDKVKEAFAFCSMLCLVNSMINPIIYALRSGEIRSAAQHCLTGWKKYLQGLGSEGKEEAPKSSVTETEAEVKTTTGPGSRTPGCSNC

## CCOC(=O)[C@H](CCc1ccccc1)N[C@@H](C)C(=O)N1CCC[C@H]1C(=O)O [enalapril, reference compound]
[1]
  collagen–III-I positive area vs vehicle: No significant difference

## Cc1c(C(=O)NN2CCCCC2)nn(-c2ccc(Cl)cc2Cl)c1-c1ccc(Cl)cc1 [SR1]
[2]; competitor 1 μM
  reduction of [3H]-RNB-61 radioactivity: did not result in a significant difference

## CC1(C)C(C(=O)c2cn(CCN3CCOCC3)c3ccccc23)C1(C)C [RNB-92]
[3]
  solubility: 2 µg/mL (≈ 5.64 µM)
[4]
  logD: 3.43
[5]
  microsomal CLint: 420 µL/min/mg
[6]
  microsomal CLint: 730 µL/min/mg
[7]
  EC50: 0.17 ± 0.01 nM

## CC1(C)CC(O)CC(C)(C)N1[O] [tempol, reference compound]
[8]; 50 mg kg^–1
  reduction of BUN compared to vehicle: 26%
  reduction of plasma KIM-1 compared to vehicle: 57%
  reduction of plasma NGAL compared to vehicle: 43%
  reduction of plasma creatinine compared to vehicle: 35%
  reduction of plasma osteopontin compared to vehicle: 49%

## N#Cc1cc(NC(=O)CCc2nc(-c3ccc(F)cc3Cl)no2)cnc1CC(F)(F)F [RNB-73]
[9]
  EC50: > 10000 nM
[3]
  solubility: < 1 µg/mL
[4]
  logD: 3.86
[10]
  Papp: 7.4 ×10⁻⁶ cm/s
[5]
  microsomal CLint: < 10 µL/min/mg
[6]
  microsomal CLint: < 10 µL/min/mg
[7]; [13]
  EC50: 7.13 ± 2.19 nM
[11]
  hCB2R selectivity: >153
[12]
  Ki: > 10000 nM

## Cc1c(C(=O)c2cccc3ccccc23)c2cccc3c2n1[C@H](CN1CCOCC1)CO3 [WIN55,212–2]
[2]; competitor 10 μM
  reduction of [3H]-RNB-61 radioactivity: significant reduction

## COCCOCCc1cc(NC(=O)C(C)(C)S(=O)(=O)C2CCOCC2)on1 [RNB-70]
[9]
  EC50: > 10000 nM
[3]
  solubility: > 510 µg/mL
[4]
  logD: 0.8
[10]
  Papp: 5.9 ×10⁻⁶ cm/s
[5]
  microsomal CLint: < 10 µL/min/mg
[7]; [13]
  EC50: 13 ± 2.58 nM
[11]
  hCB2R selectivity: >559
[12]
  Ki: > 10000 nM

## Oc1ccc(C2CNCCc3c2cc(O)c(O)c3Cl)cc1 (centres unmarked) [fenoldopam, reference compound]
[8]; 20 mg kg^–1
  reduction of BUN compared to vehicle: 39%
  reduction of plasma creatinine compared to vehicle: 55%

## CN(C(=O)c1cc(C(F)(F)F)ccc1OCC(C)(C)O)c1cc(C(C)(C)C)nn1CC1CCC1 [regioisomer of RNB-61]
[11]; assay not specified
  activity (data not shown): inactive

## CC(C)(Oc1ccc(C(F)(F)F)cn1)C(=O)Cc1cc(C(C)(C)C)no1 [RNB-90]
[9]
  EC50: 19.6 ± 1.18 nM
[3]
  solubility: < 1 µg/mL
[4]
  logD: 4.07
[10]
  Papp: 2 ×10⁻⁶ cm/s
[5]
  microsomal CLint: 15 µL/min/mg
[6]
  microsomal CLint: 81 µL/min/mg
[7]; [13]
  EC50: 0.26 ± 0.05 nM
[11]
  hCB2R selectivity: 307
